Consider 5 compounds from BindingDB's records for doi:10.7270/Q2VQ314Z (Burnham Center For Chemical Genomics, 2010).

This test concerns the target T1, Tyrosine-protein phosphatase non-receptor type 7 (Homo sapiens, UniProt P35236).
T1 sequence (P35236 whole entry): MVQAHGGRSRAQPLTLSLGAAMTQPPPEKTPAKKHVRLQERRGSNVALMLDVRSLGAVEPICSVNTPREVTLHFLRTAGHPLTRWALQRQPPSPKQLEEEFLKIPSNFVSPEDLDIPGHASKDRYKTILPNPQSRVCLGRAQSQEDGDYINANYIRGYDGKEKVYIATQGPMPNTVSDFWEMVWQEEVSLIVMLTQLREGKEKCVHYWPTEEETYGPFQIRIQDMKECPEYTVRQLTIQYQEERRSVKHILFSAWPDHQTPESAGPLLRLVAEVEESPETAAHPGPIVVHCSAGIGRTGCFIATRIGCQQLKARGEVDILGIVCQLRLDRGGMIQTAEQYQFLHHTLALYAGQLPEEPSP
The experiment in a line: HePTP phosphatase inhibitors, dose response, biochemical, fluorescence, OMFP substrate, HTS hits, set 2 (AID 435032).
Broadly, the IC50 is the point on the concentration scale where inhibition reaches its midpoint. Low readings indicate inhibition by little substance, high ones a need for much substance. `N=C(NN=Cc1ccc2c(c1)OCO2)Sc1cc(O)n(-c2ccc(C(=O)O)cc2)c1O` [4-(3-{[[(2E)-2-(1,3-benzodioxol-5-ylmethylene)hydrazino](imino)methyl]thio}-2,5-dioxopyrrolidin-1-yl)benzoic acid] displayed an IC50 of 7.33 µM.
With `Cc1ccc(NN=C2C(=O)N(CN3CCOCC3)c3ccccc32)cc1` [(3Z)-3-[(4-methylphenyl)hydrazinylidene]-1-(4-morpholinylmethyl)-2-indolone], the half-inhibitory concentration (IC50) is over 79.4 µM.
Then `O=C1C([N+](=O)[O-])=CC(Br)=CC1/C=N/n1cnnc1` (stereo not given) [MLS000714804], with over 79.4 µM; and `COC1=CC=CC(/C=N/NC(=O)c2cc3cc([N+](=O)[O-])ccc3s2)C1=O` (stereo not given) [SMR000237814], with 14.9 µM.
Compound `CCOC(=O)NC(=O)C(C=Nc1ccc(C)cc1)C(=O)NC(=O)OCC` [ethyl 2-{[(ethoxycarbonyl)amino]carbonyl}-3-(4-toluidino)acryloylcarbamate] showed an IC50 of over 79.4 µM.
